Key:
MKN-28 = test: Growth inhibition of human MKN28 cells after 48 hrs by SRB assay; type: functional; conditions: MKN-28, 48 h
[1] = Growth inhibition of human MKN1 cells after 48 hrs by SRB assay; type: functional; conditions: MKN-1, 48 h
MDA-MB-231 = test: Growth inhibition of human MDA-MB-231 cells after 48 hrs by SRB assay; type: functional; conditions: MDA-MB-231, 48 h
MKN-7 = test: Growth inhibition of human MKN7 cells after 48 hrs by SRB assay; type: functional; conditions: MKN-7, 48 h
OVCAR-4 = test: Growth inhibition of human OVCAR4 cells after 48 hrs by SRB assay; type: functional; conditions: OVCAR-4, 48 h
OVCAR-3 = test: Growth inhibition of human OVCAR3 cells after 48 hrs by SRB assay; type: functional; conditions: OVCAR-3, 48 h
MCF7 = test: Growth inhibition of human MCF7 cells after 48 hrs by SRB assay; type: functional; conditions: MCF7, 48 h
DMS-114 = test: Growth inhibition of human DMS114 cells after 48 hrs by SRB assay; type: functional; conditions: DMS-114, 48 h
[2] = Cytotoxicity against human Raji cells assessed as cell viability at 10^-8 M relative to control; type: cell-based; conditions: read-out: Activity
SF-268 = test: Growth inhibition of human SF268 cells after 48 hrs by SRB assay; type: functional; conditions: SF-268, 48 h
[3] = Cytotoxicity against human Raji cells assessed as cell viability at 10^-7 M relative to control; type: cell-based; conditions: read-out: Activity
Raji [4] = test: Tumor-promoting activity against human Raji cells expressing EBV-EA at 10^-8 M after 48 hrs by indirect immunofluorescence assay relative to control; type: ADME, cell-based; conditions: 0.01 µM
HT-29 = test: Growth inhibition of human HT-29 cells after 48 hrs by SRB assay; type: functional; conditions: HT-29, 48 h
NCI-H522 = test: Growth inhibition of human NCI-H522 cells after 48 hrs by SRB assay; type: functional; conditions: NCI-H522, 48 h
HCT-15 = test: Growth inhibition of human HCT15 cells after 48 hrs by SRB assay; type: functional; conditions: HCT-15, 48 h
[5] = Growth inhibition of human HBC5 cells after 48 hrs by SRB assay; type: functional; conditions: HBC5, 48 h
MKN-45 = test: Growth inhibition of human MKN45 cells after 48 hrs by SRB assay; type: functional; conditions: MKN-45, 48 h
ACHN = test: Growth inhibition of human ACHN cells after 48 hrs by SRB assay; type: functional
SF-539 = test: Growth inhibition of human SF539 cells after 48 hrs by SRB assay; type: functional; conditions: SF-539, 48 h
SF-295 = test: Growth inhibition of human SF295 cells after 48 hrs by SRB assay; type: functional; conditions: SF-295, 48 h
NCI-H23 = test: Growth inhibition of human NCI-H23 cells after 48 hrs by SRB assay; type: functional; conditions: NCI-H23, 48 h
SNB-75 = test: Growth inhibition of human SNB75 cells after 48 hrs by SRB assay; type: functional; conditions: SNB-75, 48 h
[6] = Growth inhibition of human BSY1 cells after 48 hrs by SRB assay; type: functional; conditions: BSY-1, 48 h
Raji [7] = test: Tumor-promoting activity against human Raji cells expressing EBV-EA at 10^-6 M after 48 hrs by indirect immunofluorescence assay relative to control; type: ADME, cell-based; conditions: 1 µM
[8] = Cytotoxicity against human Raji cells assessed as cell viability at 10^-6 M relative to control; type: cell-based; conditions: read-out: Activity
MKN-74 = test: Growth inhibition of human MKN74 cells after 48 hrs by SRB assay; type: functional; conditions: MKN-74, 48 h
Raji [9] = test: Tumor-promoting activity against human Raji cells expressing EBV-EA at 10^-7 M after 48 hrs by indirect immunofluorescence assay relative to control; type: ADME, cell-based; conditions: 0.1 µM
DMS-273 = test: Growth inhibition of human DMS273 cells after 48 hrs by SRB assay; type: functional; conditions: DMS-273, 48 h
[10] = Growth inhibition of human HCC2998 cells after 48 hrs by SRB assay; type: functional; conditions: HCC 2998, 48 h
KM12 = test: Growth inhibition of human KM12 cells after 48 hrs by SRB assay; type: functional; conditions: KM12, 48 h
U-251 = test: Growth inhibition of human U251 cells after 48 hrs by SRB assay; type: functional; conditions: U-251, 48 h
OVCAR-5 = test: Growth inhibition of human OVCAR5 cells after 48 hrs by SRB assay; type: functional; conditions: OVCAR-5, 48 h
Mus musculus = test: In vivo tumor-promoting activity in DMBA-treated ICR mouse assessed as tumor bearing mouse at 3.4 nmol administered twice per week measured after 20 weeks by two-stage carcinogenesis assay relative to control; type: ADME, organism-based; conditions: 3360 h
OVCAR-8 = test: Growth inhibition of human OVCAR8 cells after 48 hrs by SRB assay; type: functional; conditions: OVCAR-8, 48 h
SK-OV-3 = test: Growth inhibition of human SKOV3 cells after 48 hrs by SRB assay; type: functional; conditions: SK-OV-3, 48 h
[11] = Growth inhibition of human HBC4 cells after 48 hrs by SRB assay; type: functional; conditions: HBC4, 48 h
PC-3 = test: Growth inhibition of human PC3 cells after 48 hrs by SRB assay; type: functional; conditions: PC-3, 48 h
DU-145 = test: Growth inhibition of human DU145 cells after 48 hrs by SRB assay; type: functional; conditions: DU-145, 48 h
NCI-H460 = test: Growth inhibition of human NCI-H460 cells after 48 hrs by SRB assay; type: functional; conditions: NCI-H460, 48 h
A549 = test: Growth inhibition of human A549 cells after 48 hrs by SRB assay; type: functional; conditions: A549, 48 h
St-4 = test: Growth inhibition of human St-4 cells after 48 hrs by SRB assay; type: functional; conditions: St-4, 48 h
SNB-78 = test: Growth inhibition of human SNB-78 cells after 48 hrs by SRB assay; type: functional; conditions: SNB-78, 48 h
NCI-H226 = test: Growth inhibition of human NCI-H226 cells after 48 hrs by SRB assay; type: functional; conditions: NCI-H226, 48 h
LOX IMVI = test: Growth inhibition of human LOXIMVI cells after 48 hrs by SRB assay; type: functional
[12] = Growth inhibition of human RXF631L cells after 48 hrs by SRB assay; type: functional; conditions: RXF 631, 48 h
HCT-116 = test: Growth inhibition of human HCT116 cells after 48 hrs by SRB assay; type: functional; conditions: HCT-116, 48 h

CC1=C2CC(=O)O[C@@H]([C@@H](C)O)CC(=O)O[C@H]3C[C@@](O2)(O[C@H]([C@@H](C)CCCc2cccc(O)c2)[C@H]3C)C(C)(C)C1
GI50 (MKN-28): 4.68 µM
GI50 [1]: 8.13 µM
GI50 (MDA-MB-231): 1.07 µM
GI50 (MKN-7): 4.07 µM
GI50 (OVCAR-4): 6.61 µM
GI50 (OVCAR-3): 8.51 µM
GI50 (MCF7): 4.37 µM
GI50 (DMS-114): 4.47 µM
viability at 0.01 µM [2]: 60%
GI50 (SF-268): 10.2 µM
viability at 0.1 µM [3]: 60%
Activity (Raji [4]): 11%
GI50 (HT-29): 4.47 µM
GI50 (NCI-H522): 5.5 µM
GI50 (HCT-15): 6.76 µM
GI50 [5]: 11.7 µM
GI50 (MKN-45): 1.82 µM
GI50 (ACHN): 5.5 µM
GI50 (SF-539): 11.2 µM
GI50 (SF-295): 3.24 µM
GI50 (NCI-H23): 7.94 µM
GI50 (SNB-75): 9.77 µM
GI50 [6]: 4.07 µM
Activity (Raji [7]): 16.2%
viability at 1 µM [8]: 60%
GI50 (MKN-74): 6.17 µM
Activity (Raji [9]): 14.1%
GI50 (DMS-273): 4.37 µM
GI50 [10]: 1.86 µM
GI50 (KM12): 4.17 µM
GI50 (U-251): 4.57 µM
GI50 (OVCAR-5): 4.17 µM
Activity (Mus musculus): Not Active
GI50 (OVCAR-8): 12.6 µM
GI50 (SK-OV-3): 15.5 µM
GI50 [11]: 0.55 µM
GI50 (PC-3): 3.72 µM
GI50 (DU-145): 7.94 µM
GI50 (NCI-H460): 0.871 µM
GI50 (A549): 2.09 µM
GI50 (St-4): 0.741 µM
GI50 (SNB-78): 15.5 µM
GI50 (NCI-H226): 10.7 µM
GI50 (LOX IMVI): 0.832 µM
GI50 [12]: 11 µM
GI50 (HCT-116): 5.62 µM

From ChEMBL document CHEMBL2417479, “Effects of the methoxy group in the side chain of debromoaplysiatoxin on its tumor-promoting and anti-proliferative activities” (Bioorg Med Chem Lett, 2013)
